Assay results from ChEMBL document CHEMBL1149011, “Pulcherralpin, a new diterpene ester from Caesalpinia pulcherrima” (J Nat Prod, 1986).
The source made the active and inactive calls. The calls are words filed in the database; no cut-off is given here.

Columns and labels:
KB = test: Cytotoxicity against human KB cells; type: functional, cell-based
P388 = test: Cytotoxicity against mouse P388 cells; type: functional, cell-based

With `COC(=O)C[C@@H]1C(=O)C[C@H]2[C@H]([C@H]1C)[C@@H](O)[C@@H](OC(=O)/C=C/c1ccccc1)[C@@]1(O)C(C)(C)CCC[C@]21C` the Activity (KB) was “inactive” and the Activity (P388) was “inactive”.
